Source: ChEMBL document CHEMBL5543137, “Design and Synthesis of Novel Ultralong-Acting Peptides as EDP-EBP Interaction Inhibitors for Pulmonary Fibrosis Treatment” (J Med Chem, 2024)
Active and inactive are the calls of the source. No cut-off for these calls is given here. Starred links: 1 amine or outer side, 2 acyl side, 3 side chain; linkers in the order of their positions; H or OH if unused. Non-standard residues stand in square brackets, D forms with d. Residues, ends and D or L forms follow the SMILES beside them. *: point of attachment. C20 diacid = O=C(O)CCCCCCCCCCCCCCCCCCC(=O)*; γGlu = O=C(O)[C@H](CCC(=O)[*:2])N[*:1]; Iva = CC[C@](C)(N)C(=O)O; PEG2 = NCCOCCOCCC(=O)O

How the values were obtained:
[1] = Tmax in Sprague-Dawley rat serum at 0.12 mg/kg, sc administered as single dose measured upto 10 days by LC-MS/MS method; assay type: ADME, organism-based; conditions: time < 10 day
Mus musculus [2] = test: Antifibrotic activity against BLM-induced C57BL/6 mouse pulmonary fibrosis model assessed as increase in monocytes in BALF at 30 to 240 ug/kg/day, sc administered for 2 weeks starting from 7 days post BLM induction and measured after 21 days post BLM induction; assay type: functional, organism-based; conditions: dose 30-240 µg/kg/day
TC-1 [3] = test: Antifibrotic activity against BLM-induced mouse TC-1 cells assessed as reduction in FN expression at 10 uM after 24 hrs by Western blotting analysis; assay type: functional, cell-based
Mus musculus [4] = test: Antifibrotic activity against BLM-induced C57BL/6 mouse pulmonary fibrosis model assessed as reduction in Mgp gene expression at 240 ug/kg/day, sc administered for 2 weeks starting from 7 days post BLM induction and measured after 21 days post BLM induction by ScRNA-sequencing analysis; assay type: functional, organism-based; conditions: dose 240.0 µg/kg/day
Mus musculus [5] = test: Antifibrotic activity against BLM-induced C57BL/6 mouse pulmonary fibrosis model assessed as reduction in TIMP-1 expression at 240 ug/kg/day, sc administered for 2 weeks starting from 7 days post BLM induction and measured after 21 days post BLM induction in presence of GM6001; assay type: functional, organism-based; conditions: dose 240.0 µg/kg/day
Mus musculus [6] = test: Antifibrotic activity against BLM-induced C57BL/6 mouse pulmonary fibrosis model assessed as downregulation of Fn gene expression in lung tissue at 150 ug/kg, sc administered for 2 weeks starting from 7 days post BLM induction and measured after 21 days post BLM induction by RT-qPCR assay; assay type: functional, organism-based; conditions: dose 150.0 µg/kg
A549 [7] = test: Downregulation of EDP level in TNFalpha induced human A549 cells at 1 to 10 uM; assay type: functional, cell-based; conditions: dose 1-10 µM
Mus musculus [8] = test: Antifibrotic activity against BLM-induced C57BL/6 mouse pulmonary fibrosis model assessed as reduction in ECM deposition in lungs at 30 to 240 ug/kg, sc administered for 2 weeks starting from 7 days post BLM induction and measured after 21 days post BLM induction; assay type: functional, organism-based; conditions: dose 30-240 µg/kg
Mus musculus [9] = test: Antifibrotic activity against BLM-induced C57BL/6 mouse pulmonary fibrosis model assessed as reduction in Tpm1 gene expression at 240 ug/kg/day, sc administered for 2 weeks starting from 7 days post BLM induction and measured after 21 days post BLM induction by ScRNA-sequencing analysis; assay type: functional, organism-based; conditions: dose 240.0 µg/kg/day
Mus musculus [10] = test: Antifibrotic activity against BLM-induced C57BL/6 mouse pulmonary fibrosis model assessed as reduction in alpha-SMA expression at 240 ug/kg/day, sc administered for 2 weeks starting from 7 days post BLM induction and measured after 21 days post BLM induction in presence of GM6001; assay type: functional, organism-based; conditions: dose 240.0 µg/kg/day
Mus musculus [11] = test: Antifibrotic activity against BLM-induced C57BL/6 mouse pulmonary fibrosis model assessed as reduction in Timp1 gene expression at 240 ug/kg/day, sc administered for 2 weeks starting from 7 days post BLM induction and measured after 21 days post BLM induction by ScRNA-sequencing analysis; assay type: functional, organism-based; conditions: dose 240.0 µg/kg/day
RAW264.7 [12] = test: Upregulation of MMP-12 expression in mouse RAW264.7 cells at 10 uM incubated for 6 to 24 hrs; assay type: functional, cell-based; conditions: time 6-24 hrs
RAW264.7 [13] = test: Antifibrotic activity against BLM-induced mouse RAW264.7 cells assessed as downregulation in TIMP-1 expression at 10 uM after 24 hrs by Western blotting analysis; assay type: functional, cell-based
Mus musculus [14] = test: Antifibrotic activity against BLM-induced C57BL/6 mouse pulmonary fibrosis model assessed as downregulation of Timp1 gene expression in lung tissue at 150 ug/kg, sc administered for 2 weeks starting from 7 days post BLM induction and measured after 21 days post BLM induction by RT-qPCR assay; assay type: functional, organism-based; conditions: dose 150.0 µg/kg
RAW264.7 [15] = test: Antifibrotic activity against BLM-induced mouse RAW264.7 cells assessed as upregulation of MMP-12 protein expression at 10 uM incubated for 6 to 24 hrs by Western blotting analysis; assay type: functional, cell-based; conditions: time 6-24 hrs
Mus musculus [16] = test: Antifibrotic activity against BLM-induced C57BL/6 mouse pulmonary fibrosis model assessed as reduction in lung hydroxyproline content at 150 ug/kg, sc administered for 2 weeks starting from 7 days post BLM induction and measured after 21 days post BLM induction; assay type: functional, organism-based; conditions: dose 150.0 µg/kg
TC-1 [17] = test: Inhibition of EBP signaling pathway in TGFalpha induced mouse TC-1 cells assessed as reduction in PI3K phosphorylation at 10 uM incubated for 24 hrs by Western blotting analysis; assay type: cell-based
[18] = Half-life in Sprague-Dawley rat serum at 0.12 mg/kg, sc administered as single dose measured upto 10 days by LC-MS/MS method; assay type: ADME, organism-based; conditions: time < 10 day
Mus musculus [19] = test: Antifibrotic activity against BLM-induced C57BL/6 mouse pulmonary fibrosis model assessed as reduction in vimentin gene expression at 240 ug/kg/day, sc administered for 2 weeks starting from 7 days post BLM induction and measured after 21 days post BLM induction by ScRNA-sequencing analysis; assay type: functional, organism-based; conditions: dose 240.0 µg/kg/day
Mus musculus [20] = test: Antifibrotic activity against BLM-induced C57BL/6 mouse pulmonary fibrosis model assessed as reduction in Col3a1 gene expression at 240 ug/kg/day, sc administered for 2 weeks starting from 7 days post BLM induction and measured after 21 days post BLM induction by ScRNA-sequencing analysis; assay type: functional, organism-based; conditions: dose 240.0 µg/kg/day
Mus musculus [21] = test: Antifibrotic activity against BLM-induced C57BL/6 mouse pulmonary fibrosis model assessed as reduction in MMP-12 expression at 240 ug/kg/day, sc administered for 2 weeks starting from 7 days post BLM induction and measured after 21 days post BLM induction in presence of Clo-Lip; assay type: functional, organism-based; conditions: dose 240.0 µg/kg/day
A549 [22] = test: Antifibrotic activity against TNFalpha-induced human A549 cells assessed as downregulation of vimentin expression level at 10 uM incubated for 24 hrs by Western blotting analysis; assay type: functional, cell-based
RAW264.7 [23] = test: Effect on cell proliferation in mouse RAW264.7 cells at 10 uM after 24 hrs by flow cytometry analysis; assay type: functional, cell-based
Mus musculus [24] = test: Antifibrotic activity against BLM-induced C57BL/6 mouse pulmonary fibrosis model assessed as reduction in Thbs gene expression at 240 ug/kg/day, sc administered for 2 weeks starting from 7 days post BLM induction and measured after 21 days post BLM induction by ScRNA-sequencing analysis; assay type: functional, organism-based; conditions: dose 240.0 µg/kg/day
Mus musculus [25] = test: Antifibrotic activity against BLM-induced C57BL/6 mouse pulmonary fibrosis model assessed as downregulation of Mmp-9 gene expression in lung tissue at 150 ug/kg, sc administered for 2 weeks starting from 7 days post BLM induction and measured after 21 days post BLM induction by RT-qPCR assay; assay type: functional, organism-based; conditions: dose 150.0 µg/kg
Mus musculus [26] = test: Antifibrotic activity against BLM-induced C57BL/6 mouse pulmonary fibrosis model assessed as reduction in lung inflammation at 150 ug/kg, sc administered for 2 weeks starting from 7 days post BLM induction and measured after 21 days post BLM induction by immunohistochemical staining based assay; assay type: functional, organism-based; conditions: dose 150.0 µg/kg
Mus musculus [27] = test: Antifibrotic activity against BLM-induced C57BL/6 mouse pulmonary fibrosis model assessed as downregulation of TNFalpha gene expression in lung tissue at 150 ug/kg, sc administered for 2 weeks starting from 7 days post BLM induction and measured after 21 days post BLM induction by RT-qPCR assay; assay type: functional, organism-based; conditions: dose 150.0 µg/kg
Mus musculus [28] = test: Antifibrotic activity against BLM-induced C57BL/6 mouse pulmonary fibrosis model assessed as increase in MMP-12 expression at 240 ug/kg/day, sc administered for 2 weeks starting from 7 days post BLM induction and measured after 21 days post BLM induction; assay type: functional, organism-based; conditions: dose 240.0 µg/kg/day

## CC[C@](C)(NC(=O)[C@@H](NC(=O)CCOCCOCCNC(=O)CCOCCOCCNC(=O)CC[C@H](NC(=O)CCCCCCCCCCCCCCCCCCC(=O)O)C(=O)O)C(C)C)C(=O)NCC(=O)N[C@@H](CO)C(=O)N1CCC[C@H]1C(=O)N[C@@H](CO)C(=O)N[C@@H](C)C(=O)N[C@@H](CCC(N)=O)C(=O)N[C@@H](CCC(=O)O)C(=O)N[C@@H](CCC(=O)O)C(=O)N[C@@H](C)C(=O)N[C@@H](CO)C(=O)N1CCC[C@H]1C(=O)N[C@@H](C)C(N)=O ({C20 diacid-γGlu-PEG2-PEG2}-V[Iva]GSPSAQEEASPA-NH2)
[1]
  Tmax: 24 h
Mus musculus [2]
  Activity: Active
TC-1 [3]
  Activity: Active
Mus musculus [4]
  Activity: Active
Mus musculus [5]
  Activity: inactive
Mus musculus [6]
  Activity: Active
A549 [7]
  Activity: Dose-Dependent Effect
Mus musculus [8]
  Activity: Active
Mus musculus [9]
  Activity: Active
Mus musculus [10]
  Activity: inactive
Mus musculus [11]
  Activity: Active
RAW264.7 [12]
  Activity: inactive
RAW264.7 [13]
  Activity: Active
Mus musculus [14]
  Activity: Active
RAW264.7 [15]
  Activity: Active
Mus musculus [16]
  Activity: Active
TC-1 [17]
  inhibition: Active
[18]
  half-life: 33 h
Mus musculus [19]
  Activity: Active
Mus musculus [20]
  Activity: Active
Mus musculus [21]
  Activity: inactive
A549 [22]
  Activity: Active
RAW264.7 [23]
  Activity: inactive
Mus musculus [24]
  Activity: Active
Mus musculus [25]
  Activity: Active
Mus musculus [26]
  Activity: Active
Mus musculus [27]
  Activity: Active
Mus musculus [28]
  Activity: Active
